Laboratory results published in US20100286139A1, “AMINO PYRAZOLE COMPOUND” (ELI LILLY AND COMPANY, priority 2008, published 2010).

Target: T1, JAK3 (Homo sapiens, UniProt P52333)
T1 construct: host or cells: NK-92 natural killer cells, IL-2-stimulated
T1 sequence (P52333 1-1124): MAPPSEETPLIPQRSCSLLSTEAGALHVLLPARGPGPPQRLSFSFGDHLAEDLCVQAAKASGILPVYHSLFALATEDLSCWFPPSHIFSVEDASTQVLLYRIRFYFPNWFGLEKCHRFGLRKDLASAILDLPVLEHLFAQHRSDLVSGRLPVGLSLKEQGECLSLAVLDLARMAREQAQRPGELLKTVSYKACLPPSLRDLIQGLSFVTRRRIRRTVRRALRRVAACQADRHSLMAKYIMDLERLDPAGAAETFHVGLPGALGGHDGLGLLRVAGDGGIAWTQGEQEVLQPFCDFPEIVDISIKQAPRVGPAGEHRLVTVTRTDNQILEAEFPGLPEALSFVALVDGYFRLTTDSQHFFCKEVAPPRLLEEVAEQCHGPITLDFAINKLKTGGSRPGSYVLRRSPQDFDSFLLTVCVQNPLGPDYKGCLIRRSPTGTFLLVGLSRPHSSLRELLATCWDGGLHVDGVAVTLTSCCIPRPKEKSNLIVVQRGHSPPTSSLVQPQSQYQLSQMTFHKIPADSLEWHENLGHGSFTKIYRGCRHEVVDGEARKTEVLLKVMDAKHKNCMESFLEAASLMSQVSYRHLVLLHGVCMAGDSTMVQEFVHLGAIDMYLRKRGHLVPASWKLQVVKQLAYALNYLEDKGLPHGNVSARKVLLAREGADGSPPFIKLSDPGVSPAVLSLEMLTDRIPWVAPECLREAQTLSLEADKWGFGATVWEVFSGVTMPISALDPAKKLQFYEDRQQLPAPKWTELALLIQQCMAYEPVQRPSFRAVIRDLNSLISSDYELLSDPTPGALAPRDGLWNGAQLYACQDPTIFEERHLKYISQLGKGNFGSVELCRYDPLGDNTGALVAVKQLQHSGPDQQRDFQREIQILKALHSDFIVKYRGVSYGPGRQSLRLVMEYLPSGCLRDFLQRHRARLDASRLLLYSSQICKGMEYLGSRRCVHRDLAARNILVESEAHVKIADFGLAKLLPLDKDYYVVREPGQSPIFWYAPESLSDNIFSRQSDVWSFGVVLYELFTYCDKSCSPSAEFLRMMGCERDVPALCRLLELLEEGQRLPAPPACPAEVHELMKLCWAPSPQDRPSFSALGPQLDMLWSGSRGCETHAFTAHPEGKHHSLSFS
Assay: JAK3 IL-2-NK-92/pSTAT5 cell-based assay (Cellomics ArrayScan HCS)
From the text: IL-2 activates the JAK3 pathway in natural killer (NK) cells to drive the NK and CD8 lymphocyte proliferation. Therefore, IL-2 stimulated NK92/pSTAT5 cell-based assay enables the evaluation of the JAK3 cellular activity of JAK2 compounds in vitro.
NK-92 (natural killer) cells (ATCC, Manassas, Va.) are maintained in minimum essential medium (MEM) Alpha with 15% fetal bovine serum, 15% Horse Serum and 1× antibiotic/antimycotic (Invitrogen, Carlsbad, Calif.). The medium is supplemented with IL-2 (R&D systems, Minneapolis, Minn.) for a final concentration of 4 ng/mL. Cells are kept at 37° C. with 5% CO2. Cells are starved in serum free medium to remove endogenous growth factors. NK-92 cells are counted and collected to seed 2×10^7 cells per 96-well plate at a density of 2×10^5 cells per well. The cells are rinsed twice with unsupplemented MEM Alpha (MEM Alpha) before suspending cells at a final concentration of 8×10^5 cells/mL in MEM Alpha with 0.6% serum (0.3% FBS, 0.3% horse serum). […]
To perform the assay, serum-starved cells are collected and washed once with unsupplemented RPMI 1640 medium. […] An aliquot of 200 μL of 1 to 10 dilution of Mouse anti-pSTAT5 (pY694) Alexa Fluor 647® in fluorescence activated cell sorting (FACS) buffer is added to the cells. […] Mean fluorescent intensity data are collected and analyzed using Cellomics Arrayscan® VTi. […] The MSR is determined to be 2.06. […]

Cc1cc(Nc2cc(CN3CCOCC3)c3nc(C)c(Cc4ccc(Cl)cc4F)n3n2)n[nH]1 [3-(4-Chloro-2-fluorobenzyl)-2-methyl-N-(5-methyl-1H-pyrazol-3-yl)-8-(morpholinomethyl)imidazo[1,2-b]pyridazin-6-amine]
ratio of JAK3/JAK2 IC50 (JAK3 IL2-NK92-pSTAT5 IC50 over JAK2 EPO-TF1/pSTAT5 IC50): 28.5 fold | IC50 (NK-92 cells, IL-2 0.5 ng/mL stimulated, n=4, read-out: relative IC50, inhibition of pSTAT5): 940 nM
